Measurements taken from ChEMBL document CHEMBL5523671, “ω-(5-Phenyl-2H-tetrazol-2-yl)alkyl-substituted glycine amides and related compounds as inhibitors of the amine oxidase vascular adhesion protein-1 (VAP-1)” (Bioorg Med Chem, 2024).
Active and inactive are the calls of the source. The rule behind the calls is not given here.

Key:
[1] = target: T1, Amine oxidase [copper-containing] 3 (Bos taurus, UniProt Q9TTK6); test: Inhibition of bovine plasma VAP-1 using 6-(5-Pheny1-2H-tetrazol-2-yl)hexan-1-amine as substrate preincubated with enzyme for 15 mins followed by substrate addition measured after 30 mins by UV-HPLC analysis; format: cell-free
T1 sequence (Q9TTK6 whole entry): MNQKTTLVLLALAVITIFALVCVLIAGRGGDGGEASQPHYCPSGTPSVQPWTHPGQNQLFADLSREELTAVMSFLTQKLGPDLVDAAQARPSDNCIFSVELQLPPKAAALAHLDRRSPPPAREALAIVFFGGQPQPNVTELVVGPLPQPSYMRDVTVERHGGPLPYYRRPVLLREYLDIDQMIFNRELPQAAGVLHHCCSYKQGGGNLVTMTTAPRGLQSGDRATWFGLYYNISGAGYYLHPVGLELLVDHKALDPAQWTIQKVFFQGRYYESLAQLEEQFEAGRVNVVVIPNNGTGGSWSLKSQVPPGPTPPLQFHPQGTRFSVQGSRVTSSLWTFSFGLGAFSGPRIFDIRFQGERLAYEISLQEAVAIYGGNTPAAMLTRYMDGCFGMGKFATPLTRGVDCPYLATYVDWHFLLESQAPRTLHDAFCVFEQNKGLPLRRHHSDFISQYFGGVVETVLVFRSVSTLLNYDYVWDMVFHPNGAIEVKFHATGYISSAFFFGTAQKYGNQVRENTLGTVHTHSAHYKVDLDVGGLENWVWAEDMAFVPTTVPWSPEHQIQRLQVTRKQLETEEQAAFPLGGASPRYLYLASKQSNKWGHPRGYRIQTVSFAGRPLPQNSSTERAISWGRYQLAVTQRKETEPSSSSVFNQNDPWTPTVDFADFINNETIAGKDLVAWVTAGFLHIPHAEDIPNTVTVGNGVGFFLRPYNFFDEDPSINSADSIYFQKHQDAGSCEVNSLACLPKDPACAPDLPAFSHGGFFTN

[2] = target: T2, Amine oxidase [copper-containing] 3 (Bos taurus) (UniProt Q9TTK6); test: Inhibition of bovine plasma VAP-1 using 6-(5-Pheny1-2H-tetrazol-2-yl)hexan-1-amine as substrate at 10 uM preincubated with enzyme for 15 mins followed by substrate addition measured after 30 mins by UV-HPLC analysis relative to control; format: cell-free; details: time 45.0 min
T2 sequence (whole entry): T1 sequence (Q9TTK6 whole entry)

[3] = target: T1, Amine oxidase [copper-containing] 3; test: Inhibition of bovine plasma VAP-1 using 6-(5-Pheny1-2H-tetrazol-2-yl)hexan-1-amine as substrate measured after 30 mins by UV-HPLC analysis; format: cell-free
[4] = target: T2, Amine oxidase [copper-containing] 3 (Bos taurus); test: Inhibition of bovine plasma VAP-1 using 6-(5-Pheny1-2H-tetrazol-2-yl)hexan-1-amine as substrate at 10 uM measured after 30 mins by UV-HPLC analysis relative to control; format: cell-free
[5] = target: T3, VAP-1 (amine oxidase [copper-containing] 3) (Bos taurus, UniProt Q9TTK6); test: Stability of compound assessed as bovine plasma VAP-1 mediated drug degradation by measuring parent compound remaining at 10 uM incubated for 120 mins by HPLC-MS analysis; format: ADME, cell-free; details: cattle, bovine plasma VAP-1 (amine oxidase [copper-containing] 3), read-out: Stability
T3 sequence (Q9TTK6 whole entry): T1 sequence (Q9TTK6 whole entry)

[6] = target: T4, Amine oxidase [copper-containing] 3 (Homo sapiens, UniProt Q16853); test: Inhibition of human plasma VAP-1 using 6-(5-Pheny1-2H-tetrazol-2-yl)hexan-1-amine as substrate preincubated with enzyme for 15 mins followed by substrate addition measured after 120 mins by UV-HPLC analysis; format: cell-free
T4 sequence (Q16853 whole entry): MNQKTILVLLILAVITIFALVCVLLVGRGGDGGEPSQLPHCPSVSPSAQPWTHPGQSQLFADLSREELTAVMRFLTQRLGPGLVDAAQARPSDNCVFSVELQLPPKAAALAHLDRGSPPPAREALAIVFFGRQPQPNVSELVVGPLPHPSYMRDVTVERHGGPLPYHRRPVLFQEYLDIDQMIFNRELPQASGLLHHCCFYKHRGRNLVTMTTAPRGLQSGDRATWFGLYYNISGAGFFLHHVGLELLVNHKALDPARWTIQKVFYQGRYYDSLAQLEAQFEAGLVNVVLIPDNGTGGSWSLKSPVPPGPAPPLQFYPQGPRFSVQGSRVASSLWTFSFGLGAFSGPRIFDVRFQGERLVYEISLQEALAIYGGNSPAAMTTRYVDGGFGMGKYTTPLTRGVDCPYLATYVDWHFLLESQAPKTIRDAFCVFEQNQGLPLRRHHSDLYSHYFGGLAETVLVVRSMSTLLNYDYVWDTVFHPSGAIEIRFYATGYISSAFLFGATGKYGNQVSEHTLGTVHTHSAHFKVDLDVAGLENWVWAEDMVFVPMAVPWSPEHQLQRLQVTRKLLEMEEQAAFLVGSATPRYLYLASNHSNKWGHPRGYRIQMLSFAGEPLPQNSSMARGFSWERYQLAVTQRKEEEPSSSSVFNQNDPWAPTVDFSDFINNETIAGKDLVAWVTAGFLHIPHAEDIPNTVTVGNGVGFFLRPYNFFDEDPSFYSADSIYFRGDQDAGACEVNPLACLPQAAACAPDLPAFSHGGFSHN

[7] = target: T3, VAP-1 (amine oxidase [copper-containing] 3); test: Stability of compound assessed as bovine plasma VAP-1 mediated drug degradation by measuring parent compound remaining at 1 uM incubated for 120 mins by HPLC-MS analysis; format: ADME, cell-free; details: cattle, bovine plasma VAP-1 (amine oxidase [copper-containing] 3), read-out: Stability
[8] = target: T3, VAP-1 (amine oxidase [copper-containing] 3); test: Stability of compound assessed as bovine plasma VAP-1 mediated drug degradation by measuring parent compound remaining at 1 uM incubated for 15 mins by HPLC-MS analysis; format: ADME, cell-free; details: cattle, bovine plasma VAP-1 (amine oxidase [copper-containing] 3), read-out: Stability
[9] = target: T1, Amine oxidase [copper-containing] 3; test: Stability of compound assessed as bovine plasma VAP-1 mediated drug degradation by measuring formation of aldehyde metabolite at 1 to 10 uM incubated for 60 to 120 mins by HPLC-MS analysis; format: ADME, cell-free; details: cattle, dose lower 1 µM, time lower 60 min, dose upper 10 µM, time upper 120 min
[10] = Selectivity index, ratio of IC50 for human plasma VAP-1 to IC50 for bovine plasma VAP-1
[11] = Selectivity index, ratio of IC50 for porcine kidney DAO to IC50 for bovine plasma VAP-1
[12] = target: T3, VAP-1 (amine oxidase [copper-containing] 3); test: Stability of compound assessed as bovine plasma VAP-1 mediated drug degradation by measuring parent compound remaining at 1 uM incubated for 60 mins by HPLC-MS analysis; format: ADME, cell-free; details: cattle, bovine plasma VAP-1 (amine oxidase [copper-containing] 3), read-out: Stability
[13] = target: T3, VAP-1 (amine oxidase [copper-containing] 3); test: Stability of compound assessed as bovine plasma VAP-1 mediated drug degradation by measuring parent compound remaining at 1 uM incubated for 30 mins by HPLC-MS analysis; format: ADME, cell-free; details: cattle, bovine plasma VAP-1 (amine oxidase [copper-containing] 3), read-out: Stability
[14] = target: T3, VAP-1 (amine oxidase [copper-containing] 3); test: Stability of compound assessed as bovine plasma VAP-1 mediated drug degradation by measuring parent compound remaining at 10 uM incubated for 30 mins by HPLC-MS analysis; format: ADME, cell-free; details: cattle, bovine plasma VAP-1 (amine oxidase [copper-containing] 3), read-out: Stability
[15] = target: T3, VAP-1 (amine oxidase [copper-containing] 3); test: Stability of compound assessed as bovine plasma VAP-1 mediated drug degradation by measuring parent compound remaining at 10 uM incubated for 15 mins by HPLC-MS analysis; format: ADME, cell-free; details: cattle, bovine plasma VAP-1 (amine oxidase [copper-containing] 3), read-out: Stability
[16] = target: T3, VAP-1 (amine oxidase [copper-containing] 3); test: Stability of compound assessed as bovine plasma VAP-1 mediated drug degradation by measuring parent compound remaining at 10 uM incubated for 60 mins by HPLC-MS analysis; format: ADME, cell-free; details: cattle, bovine plasma VAP-1 (amine oxidase [copper-containing] 3), read-out: Stability

Compound	IC50 [1]	inhibition [2]	IC50 [3]	inhibition [4]	also measured
NCC(=O)N1CCC(CCCn2nnc(-c3ccccc3)n2)CC1	> 10 µM	18%	> 10 µM	19%	–
NCC(=O)NCCCCCCn1cnc(-c2ccccc2)c1	> 10 µM	33%	> 10 µM	41%	–
Cl.NCC(=O)NCc1cccc(Cn2nnc(-c3ccccc3)n2)c1	0.16 µM	–	0.37 µM	–	remaining at 2 h, 10 µM [5]: 84%; IC50 [6]: 2.1 µM; remaining at 2 h, 1 µM [7]: < 5%; remaining at 0.25 h, 1 µM [8]: 73%; Stability [9]: Stable; Ratio IC50 [10]: 2; Ratio IC50 [11]: 50; remaining at 1 h, 1 µM [12]: < 5%; remaining at 0.5 h, 1 µM [13]: 47%; remaining at 0.5 h, 10 µM [14]: > 95%; remaining at 0.25 h, 10 µM [15]: > 95%; remaining at 1 h, 10 µM [16]: 93%
NCC(=O)NCCCn1nnc(-c2ccccc2)n1	> 10 µM	29%	> 10 µM	13%	–
NCC(=O)NCCCCCCn1ncc(-c2ccccc2)n1	7 µM	–	6.2 µM	–	–
NCCCCCCn1nnc(-c2ccccc2)n1	–	–	–	–	remaining at 2 h, 10 µM [5]: < 5%; remaining at 0.5 h, 10 µM [14]: < 5%; remaining at 0.25 h, 10 µM [15]: < 5%; remaining at 1 h, 10 µM [16]: < 5%
Cl.N#Cc1ccc(-c2nnn(Cc3cccc(CNC(=O)CN)c3)n2)cc1	–	–	–	–	remaining at 2 h, 10 µM [5]: 81%; remaining at 2 h, 1 µM [7]: < 5%; remaining at 0.25 h, 1 µM [8]: 74%; Stability [9]: Stable; Ratio IC50 [10]: 2; Ratio IC50 [11]: 50; remaining at 1 h, 1 µM [12]: < 5%; remaining at 0.5 h, 1 µM [13]: 49%; remaining at 0.5 h, 10 µM [14]: 95%; remaining at 0.25 h, 10 µM [15]: 93%
COC(=O)c1ccc(-c2nnn(CCCCCCNC(=O)CN)n2)cc1	6.1 µM	–	7.3 µM	–	–
NCC(=O)NCc1ccccc1Cn1nnc(-c2ccccc2)n1	> 10 µM	18%	> 10 µM	30%	remaining at 2 h, 10 µM [5]: 56%; remaining at 0.5 h, 10 µM [14]: 86%; remaining at 0.25 h, 10 µM [15]: 91%; remaining at 1 h, 10 µM [16]: 84%
NCC(=O)NCCn1nnc(-c2ccccc2)n1	> 10 µM	31%	–	inactive	–
NCC(=O)NCCCCCCn1nnc(-c2ccc(N3CCOCC3)cc2)n1	5.6 µM	–	7.6 µM	–	–
COc1ccc(-c2nnn(CCCCCCNC(=O)CN)n2)cc1	6.3 µM	–	6.2 µM	–	–
NCC(=O)NCCCCCCn1nnc(-c2ccc(Cl)cc2)n1	4.3 µM	–	3.5 µM	–	–
NCC(=O)Nc1ccc(CCn2nnc(-c3ccccc3)n2)cc1	> 10 µM	18%	> 10 µM	20%	–
NCC(=O)NCCCCCn1nnc(-c2ccccc2)n1	> 10 µM	45%	9.4 µM	–	–
CS(=O)(=O)c1ccc(-c2nnn(CCCCCCNC(=O)CN)n2)cc1	4.5 µM	–	2.3 µM	–	remaining at 2 h, 10 µM [5]: < 5%; IC50 [6]: 29 µM; Stability [9]: Unstable; Ratio IC50 [10]: 2; remaining at 0.5 h, 10 µM [14]: 63%; remaining at 0.25 h, 10 µM [15]: 82%; remaining at 1 h, 10 µM [16]: 23%
NCC(=O)NCCCCCCn1cc(-c2ccccc2)cn1	7.9 µM	–	6.9 µM	–	–

Compound	IC50 [1]	inhibition [2]	IC50 [3]	inhibition [4]	also measured
NCC(=O)NC1CCC(CCn2nnc(-c3ccccc3)n2)CC1 (centres undefined)	–	inactive	–	inactive	–
NCC(=O)NCCCCCCCCn1nnc(-c2ccccc2)n1	4.8 µM	–	3.1 µM	–	–
CN(Cc1cccc(Cn2nnc(-c3ccccc3)n2)c1)C(=O)CN	> 10 µM	49%	> 10 µM	43%	remaining at 2 h, 10 µM [5]: 45%; IC50 [6]: 20 µM; Ratio IC50 [10]: 2; remaining at 0.5 h, 10 µM [14]: 85%; remaining at 0.25 h, 10 µM [15]: 95%; remaining at 1 h, 10 µM [16]: 65%
CC(C)(C)NC(=O)c1ccc(OC/C(=C/F)CN)cc1	0.027 µM	–	1 µM	–	remaining at 2 h, 10 µM [5]: > 95%; remaining at 2 h, 1 µM [7]: 90%; remaining at 0.25 h, 1 µM [8]: > 95%; remaining at 1 h, 1 µM [12]: > 95%; remaining at 0.5 h, 1 µM [13]: > 95%; remaining at 0.5 h, 10 µM [14]: > 95%; remaining at 0.25 h, 10 µM [15]: > 95%; remaining at 1 h, 10 µM [16]: > 95%
NCC(=O)NCCCCCCn1nnc(-c2cccs2)n1	7.7 µM	–	5.6 µM	–	–
NCC(=O)NCCCCn1nnc(-c2ccccc2)n1	> 10 µM	29%	> 10 µM	14%	–
NCC(=O)NCCCCCCn1nnc(-c2ccc(C(N)=O)cc2)n1	5.2 µM	–	4 µM	–	–
NCC(=O)NCCCCCCn1nnc(-c2cccnc2)n1	> 10 µM	45%	> 10 µM	44%	–
NCC(=O)NCCCCCCn1ccc(-c2ccccc2)n1	> 10 µM	37%	> 10 µM	42%	–
NCC(=O)NCCCCCCCn1nnc(-c2ccccc2)n1	6.6 µM	–	5.7 µM	–	–
NCC(=O)NCc1ccc(Cn2nnc(-c3ccccc3)n2)cc1	5.9 µM	–	9.1 µM	–	remaining at 2 h, 10 µM [5]: 45%; remaining at 0.5 h, 10 µM [14]: 82%; remaining at 0.25 h, 10 µM [15]: 89%; remaining at 1 h, 10 µM [16]: 69%
NCC(=O)NCCCCCCn1nnc(-c2ccccn2)n1	> 10 µM	49%	> 10 µM	40%	–
NCC(=O)NCCCCCCn1nnc(-c2ccncc2)n1	5.4 µM	–	6.2 µM	–	–
NCC(=O)NCCCCCCn1nnc(-c2ccsc2)n1	6.8 µM	–	6.3 µM	–	–
Cc1ccc(-c2nnn(CCCCCCNC(=O)CN)n2)cc1	5.1 µM	–	4.7 µM	–	–
NCC(=O)NCCCCCCn1nnc(-c2ccc(C(=O)O)cc2)n1	–	inactive	–	inactive	–
